Experimental data: ChEMBL document CHEMBL1811776, “Discovery of benzimidazole derivatives as novel multi-target EGFR, VEGFR-2 and PDGFR kinase inhibitors” (Bioorg Med Chem, 2011)
Blank lines part the entries; values can stand above or below the compound they belong to. The source made the active and inactive calls. The rule behind the calls is not given here.

How the values were obtained:
HepG2 [1] = assay: cells; details: Homo sapiens, HepG2, 72 h
Description: Cytotoxicity against human HepG2 cells after 72 hrs by MTT assay

[2] = biological target: Platelet-derived growth factor receptor alpha (Homo sapiens) (UniProt P16234); assay: Inhibition of PDGFR-alpha at 20 uM after 1 hrs by luminescence assay
Platelet-derived growth factor receptor alpha (Homo sapiens), sequence (P16234 whole entry): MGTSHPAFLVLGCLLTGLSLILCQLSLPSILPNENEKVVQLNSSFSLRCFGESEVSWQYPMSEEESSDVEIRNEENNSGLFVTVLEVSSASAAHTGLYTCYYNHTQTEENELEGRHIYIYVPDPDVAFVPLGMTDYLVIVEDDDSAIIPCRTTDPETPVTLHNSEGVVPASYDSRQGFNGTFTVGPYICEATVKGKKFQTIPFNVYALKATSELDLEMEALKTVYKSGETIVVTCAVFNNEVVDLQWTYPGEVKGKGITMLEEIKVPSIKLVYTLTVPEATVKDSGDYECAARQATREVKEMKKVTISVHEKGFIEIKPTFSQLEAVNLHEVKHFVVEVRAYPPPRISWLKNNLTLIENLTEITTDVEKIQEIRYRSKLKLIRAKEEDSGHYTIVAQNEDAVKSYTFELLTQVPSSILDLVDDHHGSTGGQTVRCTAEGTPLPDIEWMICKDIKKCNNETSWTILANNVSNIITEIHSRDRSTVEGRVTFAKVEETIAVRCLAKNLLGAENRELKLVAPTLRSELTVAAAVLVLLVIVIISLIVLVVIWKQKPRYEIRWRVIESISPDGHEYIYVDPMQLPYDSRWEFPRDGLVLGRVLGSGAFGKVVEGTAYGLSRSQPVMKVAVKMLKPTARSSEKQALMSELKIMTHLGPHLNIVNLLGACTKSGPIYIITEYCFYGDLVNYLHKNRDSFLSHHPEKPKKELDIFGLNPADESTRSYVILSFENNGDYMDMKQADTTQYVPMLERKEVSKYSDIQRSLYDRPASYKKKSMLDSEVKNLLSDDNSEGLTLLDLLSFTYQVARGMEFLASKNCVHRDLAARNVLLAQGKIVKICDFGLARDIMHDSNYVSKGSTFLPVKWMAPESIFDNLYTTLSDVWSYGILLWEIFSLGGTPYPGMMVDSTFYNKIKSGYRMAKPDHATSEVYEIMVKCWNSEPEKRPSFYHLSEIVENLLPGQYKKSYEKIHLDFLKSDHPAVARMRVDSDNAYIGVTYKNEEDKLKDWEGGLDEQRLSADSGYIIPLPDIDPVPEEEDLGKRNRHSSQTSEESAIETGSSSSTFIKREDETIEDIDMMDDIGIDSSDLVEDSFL

[3] = biological target: Platelet-derived growth factor receptor beta (Homo sapiens) (UniProt P09619); assay: Inhibition of PDGFR-beta at 20 uM after 1 hrs by luminescence assay
Platelet-derived growth factor receptor beta (Homo sapiens), sequence (P09619 whole entry): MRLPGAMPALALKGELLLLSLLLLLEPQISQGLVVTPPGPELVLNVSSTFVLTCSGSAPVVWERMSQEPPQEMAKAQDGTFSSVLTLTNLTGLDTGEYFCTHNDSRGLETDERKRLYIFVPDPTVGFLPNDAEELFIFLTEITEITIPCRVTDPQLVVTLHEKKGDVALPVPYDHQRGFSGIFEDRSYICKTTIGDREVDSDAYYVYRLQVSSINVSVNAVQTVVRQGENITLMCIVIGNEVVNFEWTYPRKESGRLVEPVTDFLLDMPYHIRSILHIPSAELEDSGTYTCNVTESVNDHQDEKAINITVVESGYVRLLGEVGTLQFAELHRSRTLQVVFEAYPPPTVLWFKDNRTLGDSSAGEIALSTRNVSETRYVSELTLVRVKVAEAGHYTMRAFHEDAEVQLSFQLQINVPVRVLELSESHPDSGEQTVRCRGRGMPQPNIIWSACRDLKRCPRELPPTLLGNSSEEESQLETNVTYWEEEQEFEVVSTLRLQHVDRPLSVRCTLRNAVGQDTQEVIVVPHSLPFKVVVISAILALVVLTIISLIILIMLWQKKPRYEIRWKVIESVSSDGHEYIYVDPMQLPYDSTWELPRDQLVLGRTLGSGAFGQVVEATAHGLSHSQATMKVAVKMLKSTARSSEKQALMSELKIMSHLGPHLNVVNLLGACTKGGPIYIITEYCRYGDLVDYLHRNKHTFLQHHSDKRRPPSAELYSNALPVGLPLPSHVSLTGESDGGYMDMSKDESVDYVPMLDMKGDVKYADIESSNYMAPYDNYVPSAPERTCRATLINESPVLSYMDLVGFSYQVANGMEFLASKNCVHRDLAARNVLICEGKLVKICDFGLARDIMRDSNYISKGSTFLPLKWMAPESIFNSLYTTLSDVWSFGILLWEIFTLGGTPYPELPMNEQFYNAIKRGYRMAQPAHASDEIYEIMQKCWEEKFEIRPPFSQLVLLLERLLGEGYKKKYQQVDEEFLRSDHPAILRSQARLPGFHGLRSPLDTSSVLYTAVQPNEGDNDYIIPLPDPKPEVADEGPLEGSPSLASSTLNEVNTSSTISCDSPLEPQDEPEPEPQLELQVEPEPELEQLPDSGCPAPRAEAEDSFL

[4] = biological target: Vascular endothelial growth factor receptor 2 (Homo sapiens) (UniProt P35968); assay: Inhibition of VEGFR-2 at 20 uM after 1 hrs by luminescence assay
Vascular endothelial growth factor receptor 2 (Homo sapiens), sequence (P35968 whole entry, canonical isoform): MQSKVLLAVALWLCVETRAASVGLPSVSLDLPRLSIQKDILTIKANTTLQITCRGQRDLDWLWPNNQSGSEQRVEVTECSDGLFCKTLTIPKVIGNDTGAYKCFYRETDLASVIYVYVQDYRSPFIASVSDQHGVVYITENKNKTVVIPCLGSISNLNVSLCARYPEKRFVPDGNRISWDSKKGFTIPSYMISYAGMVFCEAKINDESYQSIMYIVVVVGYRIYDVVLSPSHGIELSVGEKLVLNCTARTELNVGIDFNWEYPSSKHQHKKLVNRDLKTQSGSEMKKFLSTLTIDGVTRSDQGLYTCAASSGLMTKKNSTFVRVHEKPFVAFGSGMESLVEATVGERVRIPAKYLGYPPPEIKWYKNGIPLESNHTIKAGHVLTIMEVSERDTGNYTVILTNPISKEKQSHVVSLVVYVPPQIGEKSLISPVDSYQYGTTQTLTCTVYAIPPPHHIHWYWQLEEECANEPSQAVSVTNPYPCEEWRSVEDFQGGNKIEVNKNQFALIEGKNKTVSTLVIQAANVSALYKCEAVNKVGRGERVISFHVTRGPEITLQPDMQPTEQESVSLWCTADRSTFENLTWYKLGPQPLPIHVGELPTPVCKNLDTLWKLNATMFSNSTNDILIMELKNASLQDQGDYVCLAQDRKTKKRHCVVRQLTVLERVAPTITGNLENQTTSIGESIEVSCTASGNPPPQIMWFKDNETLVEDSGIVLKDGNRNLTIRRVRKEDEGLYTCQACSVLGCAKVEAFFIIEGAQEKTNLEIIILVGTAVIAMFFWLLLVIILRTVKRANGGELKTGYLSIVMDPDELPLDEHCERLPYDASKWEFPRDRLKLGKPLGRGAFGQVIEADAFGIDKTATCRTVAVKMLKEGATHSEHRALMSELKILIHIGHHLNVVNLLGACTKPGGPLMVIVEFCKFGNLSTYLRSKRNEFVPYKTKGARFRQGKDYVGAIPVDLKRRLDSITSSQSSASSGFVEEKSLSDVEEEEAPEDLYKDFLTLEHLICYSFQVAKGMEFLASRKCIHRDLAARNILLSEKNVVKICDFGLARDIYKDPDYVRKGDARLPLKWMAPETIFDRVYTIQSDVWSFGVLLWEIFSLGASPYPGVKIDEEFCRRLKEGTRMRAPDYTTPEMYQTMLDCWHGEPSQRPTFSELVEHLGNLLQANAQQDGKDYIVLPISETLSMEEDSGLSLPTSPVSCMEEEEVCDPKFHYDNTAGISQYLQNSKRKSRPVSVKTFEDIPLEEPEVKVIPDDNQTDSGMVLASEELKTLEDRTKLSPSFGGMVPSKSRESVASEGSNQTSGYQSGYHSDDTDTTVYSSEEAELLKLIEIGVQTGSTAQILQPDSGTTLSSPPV

[5] = biological target: Platelet-derived growth factor receptor alpha (Homo sapiens) (UniProt P16234); assay: Inhibition of PDGFR-alpha at 50 uM after 1 hrs by luminescence assay
[6] = biological target: Platelet-derived growth factor receptor beta (Homo sapiens) (UniProt P09619); assay: Inhibition of PDGFR-beta at 50 uM after 1 hrs by luminescence assay
[7] = biological target: Vascular endothelial growth factor receptor 1 (Homo sapiens) (UniProt P17948); assay: Inhibition of VEGFR-1 at 50 uM after 1 hrs by luminescence assay
[8] = biological target: Vascular endothelial growth factor receptor 2 (Homo sapiens) (UniProt P35968); assay: Inhibition of VEGFR-2 at 50 uM after 1 hrs by luminescence assay
[9] = biological target: Phosphatidylinositol 4,5-bisphosphate 3-kinase catalytic subunit alpha isoform (Homo sapiens) (UniProt P42336); assay: Inhibition of PI3K-alpha at 50 uM after 1 hrs by luminescence assay
Phosphatidylinositol 4,5-bisphosphate 3-kinase catalytic subunit alpha isoform (Homo sapiens), sequence (P42336 whole entry, canonical isoform): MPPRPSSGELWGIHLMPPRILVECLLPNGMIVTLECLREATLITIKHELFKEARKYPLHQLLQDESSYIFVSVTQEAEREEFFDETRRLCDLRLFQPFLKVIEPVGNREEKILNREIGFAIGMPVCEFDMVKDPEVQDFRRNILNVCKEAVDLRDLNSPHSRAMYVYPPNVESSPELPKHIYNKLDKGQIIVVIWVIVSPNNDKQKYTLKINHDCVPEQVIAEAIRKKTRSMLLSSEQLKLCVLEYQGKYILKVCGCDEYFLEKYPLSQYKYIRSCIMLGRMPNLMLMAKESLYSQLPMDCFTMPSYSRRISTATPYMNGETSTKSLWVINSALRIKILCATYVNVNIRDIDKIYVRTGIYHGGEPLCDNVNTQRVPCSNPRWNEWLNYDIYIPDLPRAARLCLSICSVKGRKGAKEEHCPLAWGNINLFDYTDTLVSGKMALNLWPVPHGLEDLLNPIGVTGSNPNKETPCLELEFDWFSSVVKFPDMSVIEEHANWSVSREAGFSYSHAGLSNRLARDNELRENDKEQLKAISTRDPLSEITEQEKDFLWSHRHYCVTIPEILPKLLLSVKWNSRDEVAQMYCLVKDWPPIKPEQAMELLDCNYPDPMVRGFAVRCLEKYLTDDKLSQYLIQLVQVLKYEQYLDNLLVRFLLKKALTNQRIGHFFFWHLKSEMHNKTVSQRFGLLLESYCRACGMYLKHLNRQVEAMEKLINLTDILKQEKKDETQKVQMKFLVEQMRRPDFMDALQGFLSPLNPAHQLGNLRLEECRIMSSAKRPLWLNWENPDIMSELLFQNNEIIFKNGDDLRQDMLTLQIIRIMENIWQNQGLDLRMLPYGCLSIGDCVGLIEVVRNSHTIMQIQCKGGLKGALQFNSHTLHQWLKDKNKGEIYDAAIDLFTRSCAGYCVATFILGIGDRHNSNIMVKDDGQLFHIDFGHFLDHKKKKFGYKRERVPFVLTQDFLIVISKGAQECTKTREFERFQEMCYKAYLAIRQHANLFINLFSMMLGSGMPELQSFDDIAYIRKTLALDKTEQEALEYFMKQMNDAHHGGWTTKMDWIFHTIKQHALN

[10] = biological target: Epidermal growth factor receptor (Homo sapiens, UniProt P00533); assay: Inhibition of EGFR after 1 hrs by luminescence assay
HepG2 [11] = assay: Induction of apoptosis in human HepG2 cells assessed as early apoptotic cells at 2 uM after 72 hrs using annexin V-propidium iodide staining based flow cytometric analysis; format: functional
HepG2 [12] = assay: Induction of apoptosis in human HepG2 cells assessed as late apoptotic or dead cells at 2 uM after 72 hrs using annexin V-propidium iodide staining based flow cytometric analysis; format: functional

Compound: O=C(Nc1ccc2[nH]c(-c3ccc(F)cc3)nc2c1)c1cnccn1
inhibition [2]: 2.55%
inhibition [3]: 0.27%
inhibition [4]: 0.58%

Compound: Cc1cnc(C(=O)Nc2ccc3[nH]c(-c4ccc(F)cc4)nc3c2)cn1
inhibition [2]: 5.43%
inhibition [3]: 0.5%
inhibition [4]: 0.5%

Compound: Cn1cccc1-c1nc2cc(NC(=O)CCl)ccc2[nH]1
inhibition [5]: 18.7%
inhibition [6]: 17.8%
inhibition [7]: inactive
inhibition [8]: 16.5%
inhibition [9]: 3.7%
IC50 [10]: 12.1 µM
Activity (HepG2 [11]): 22.8%
Activity (HepG2 [12]): 18.7%
IC50 (HepG2 [1]): 1.8 µM

Compound: Cc1ccc(-c2nc3cc(NC(=O)CCl)ccc3[nH]2)cc1
inhibition [5]: 42.7%
inhibition [6]: 52.6%
inhibition [7]: 7.3%
inhibition [8]: 33.1%
inhibition [9]: inactive
IC50 [10]: 1.93 µM
Activity (HepG2 [11]): 28.6%
Activity (HepG2 [12]): 16.6%
IC50 (HepG2 [1]): 2 µM

Compound: CN[C@@H]1C[C@H]2O[C@@](C)([C@@H]1OC)n1c3ccccc3c3c4c(c5c6ccccc6n2c5c31)C(=O)NC4
inhibition [5]: 92.6%
inhibition [7]: 93.4%
inhibition [9]: 97%
inhibition [2]: 97.5%

Compound: Cc1ccc(-c2nc3cc(NC(=O)CN4CCCCC4)ccc3[nH]2)cc1
IC50 (HepG2 [1]): > 50 µM

Compound: COc1cc2c(c(OC)c1OC)-c1ccc(OC)c(=O)cc1[C@@H](NC(C)=O)CC2 [COLCHICINE]
IC50 (HepG2 [1]): 0.05 µM

Compound: Cc1ccc(-c2nc3cc(NC(=O)CN4CCOCC4)ccc3[nH]2)cc1
IC50 (HepG2 [1]): > 50 µM

Compound: Cc1ccc(-c2nc3cc(NC(=O)CCN4CCN(C)CC4)ccc3[nH]2)cc1
IC50 (HepG2 [1]): > 50 µM

Compound: Cc1ccc(-c2nc3cc(NC(=O)CN4CCN(C)CC4)ccc3[nH]2)cc1
IC50 (HepG2 [1]): > 50 µM

Compound: Cc1ccc(-c2nc3cc(NC(=O)CCCl)ccc3[nH]2)cc1
inhibition [5]: 17%
inhibition [6]: 24.6%
inhibition [7]: 3.3%
inhibition [8]: inactive
inhibition [9]: inactive
IC50 (HepG2 [1]): > 50 µM

Further lines, results first:

IC50 (HepG2 [1]): > 50 µM
Compound: CCN1CCN(CC(=O)Nc2ccc3[nH]c(-c4cccn4C)nc3c2)CC1

IC50 (HepG2 [1]): > 50 µM
Compound: Cn1cccc1-c1nc2cc(NC(=O)CCCl)ccc2[nH]1

IC50 (HepG2 [1]): 11.3 µM
Compound: O=C(CCCl)Nc1ccc2[nH]c(-c3ccc(Br)cc3)nc2c1

IC50 (HepG2 [1]): > 50 µM
Compound: Cc1ccc(-c2nc3cc(NC(=O)CN4CCCC4)ccc3[nH]2)cc1

IC50 (HepG2 [1]): 14.6 µM
Compound: CCN1CCN(CCC(=O)Nc2ccc3[nH]c(-c4ccc(C)cc4)nc3c2)CC1

IC50 (HepG2 [1]): 11.9 µM
Compound: Cc1ccc(-c2nc3cc(NC(=O)CCN4CCCCC4)ccc3[nH]2)cc1

IC50 (HepG2 [1]): > 50 µM
Compound: CCN1CCN(CCC(=O)Nc2ccc3[nH]c(-c4cccn4C)nc3c2)CC1

IC50 (HepG2 [1]): 31.9 µM
Compound: CCN1CCN(CC(=O)Nc2ccc3[nH]c(-c4ccc(C)cc4)nc3c2)CC1

IC50 (HepG2 [1]): 27.4 µM
Compound: CCN1CCN(CCC(=O)Nc2ccc3[nH]c(-c4ccc(Br)cc4)nc3c2)CC1
